In patent US20260274829A1, “NEW E3 UBIQUITIN LIGASE LIGAND, PROTEIN DEGRADATION AGENT AND USE THEREOF” (GLUETACS THERAPEUTICS (SHANGHAI) CO., LTD., priority 2023, published 2026):

Target: T1, human Cereblon WT GST-tagged protein (Homo sapiens, UniProt Q96SW2)
T1 construct: purchased CISBIO 64BDCRBNPEH
Experiment: CRBN binding, HTRF CEREBLON BINDING kit
Conditions: CRBN binding, HTRF CEREBLON BINDING kit
Experimental: The CEREBLON BINDING kits (specification: 10,000 tests; product number: Catalog #64BDCRBNPEH; CISBIO company) was used to determine the CRBN binding ability of the compounds to be tested through a HTRF method (homogeneous time-resolved fluorescence). The specific methods are as follows: • 1. […] Then, 2.5 μL of human Cereblon WT GST-tagged protein solution was added to each well. Finally, 5 μL of the thoroughly mixed Thalidomide-Re reagent and GST Eu antibody working solution were added to each of the aforementioned wells. […] The blank control wells were sequentially added with 2.5 μL of diluent #9 (1×) solution, 2.5 μL of binding buffer, and 5 μL of thoroughly mixed Thalidomide-Re reagent and GST Eu antibody working solution. • 4. After sealing and incubating the solutions in the aforementioned wells at room temperature for 3 hours, the absorbance values at emission wavelengths of 620 nm and 665 nm were detected by the HTRF method using a Spark microplate reader (V3.1 SP1).
The corresponding CRBN binding inhibition rate was calculated using the following method:
[formula] [formula] [formula] • Note: OD 665 nmcompound is the absorbance value of each well of the compounds to be tested of the present disclosure at an emission wavelength of 665 nm. • OD 620 nmcompound is the absorbance value of each well of the compounds to be tested of the present disclosure at an emission wavelength of 620 nm. • OD 665 nmcontrol is the absorbance value of the blank control well at an emission wavelength of 665 nm. • OD 620 nmcontrol is the absorbance value of the blank control well at an emission wavelength of 620 nm. • OD 665 nmStd0 is the absorbance value of the solvent control well at an emission wavelength of 665 nm. • OD 620 nmStd0 is the absorbance value of the solvent control well at an emission wavelength of 620 nm.

T1 sequence (Q96SW2 whole entry): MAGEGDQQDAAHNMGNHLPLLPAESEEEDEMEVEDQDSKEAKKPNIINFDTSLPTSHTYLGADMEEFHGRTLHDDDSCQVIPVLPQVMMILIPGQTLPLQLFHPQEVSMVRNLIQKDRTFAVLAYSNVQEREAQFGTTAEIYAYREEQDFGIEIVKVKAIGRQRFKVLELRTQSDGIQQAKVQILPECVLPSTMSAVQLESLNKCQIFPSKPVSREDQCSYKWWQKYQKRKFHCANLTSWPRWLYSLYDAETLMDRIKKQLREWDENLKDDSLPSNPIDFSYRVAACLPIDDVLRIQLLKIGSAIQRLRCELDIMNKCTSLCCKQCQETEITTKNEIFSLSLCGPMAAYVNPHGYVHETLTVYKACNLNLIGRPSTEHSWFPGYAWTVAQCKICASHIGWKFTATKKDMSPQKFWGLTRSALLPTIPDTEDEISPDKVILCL

Row | IC50 [nM] | SMILES
1 | 500 to 1000 | CN1CCN([C@@H]2CCCN(c3cnc(C(N)=O)c(Nc4ccc(C5CCN(Cc6ccc(N7CCC(=O)NC7=O)cc6F)CC5)cc4)n3)C2)C1=O [GT-04803, (R)-3-((4-(1-(4-(2,4-dioxotetrahydropyrimidin-1(2H)-yl)-2-fluorobenzyl)piperidin-4-yl)phenyl)amino)-5-(3-(3-methyl-2-oxoimidazolidin-1-yl)piperidin-1-yl)pyrazine-2-carboxamide]
2 | 1000 to 1900 | CN1CCN([C@@H]2CCCN(c3cnc(C(N)=O)c(Nc4ccc(C5CCN(Cc6cccc(NC7CCC(=O)NC7=O)c6)CC5)cc4)n3)C2)C1=O (stereo partly drawn) [GT-04804, 3-((4-(1-(3-((2,6-dioxopiperidin-3-yl)amino)benzyl)piperidin-4-yl)phenyl)amino)-5-((R)-3-(3-methyl-2-oxoimidazolidin-1-yl)piperidin-1-yl)pyrazine-2-carboxamide]
3 | 1000 to 1900 | COc1ccc2cn(C3CCN(Cc4ccc(C5CCC(=O)NC5=O)cc4)CC3)nc2c1NC(=O)c1cccc(C(F)(F)F)c1 (stereo not drawn) [GT-04813, N-(2-(1-(4-(2,6-dioxopiperidin-3-yl)benzyl)piperidin-4-yl)-6-methoxy-2H-indazol-7-yl)-3-(trifluoromethyl)benzamide]
4 | 500 to 1000 | COc1ccc2cn(C3CCN(Cc4ccc(C5CCC(=O)NC5=O)c(F)c4)CC3)nc2c1NC(=O)c1cccc(C(F)(F)F)c1 (stereo not drawn) [GT-04814, N-(2-(1-(4-(2,6-dioxopiperidin-3-yl)-3-fluorobenzyl)piperidin-4-yl)-6-methoxy-2H-indazol-7-yl)-3-(trifluoromethyl)benzamide]
5 | 1000 to 1900 | Cc1ccc(-c2c(C)noc2C)cc1N(CC1CCN(Cc2cccc(N3CCC(=O)NC3=O)c2)CC1)c1ccc(C2(C#N)CC2)cc1 [GT-04842, 1-(4-((5-(3,5-dimethylisoxazol-4-yl)-2-methylphenyl)((1-(3-(2,4-dioxotetrahydropyrimidin-1(2H)-yl)benzyl)piperidin-4-yl)methyl)amino)phenyl)cyclopropane-1-carbonitrile]
6 | 1000 to 1900 | Cc1ccc(-c2c(C)noc2C)cc1N(CC1CCN(Cc2ccc(N3CCC(=O)NC3=O)c(F)c2)CC1)c1ccc(C2(C#N)CC2)cc1 [GT-04843, 1-(4-((5-(3,5-dimethylisoxazol-4-yl)-2-methylphenyl)((1-(4-(2,4-dioxotetrahydropyrimidin-1(2H)-yl)-3-fluorobenzyl)piperidin-4-yl)methyl)amino)phenyl)cyclopropane-1-carbonitrile]
7 | 500 to 1000 | Cc1ccc(-c2c(C)noc2C)cc1N(CC1CCN(Cc2ccc(N3CCC(=O)NC3=O)cc2)CC1)c1ccc(C2(C#N)CC2)cc1 [GT-04844, 1-(4-((5-(3,5-dimethylisoxazol-4-yl)-2-methylphenyl)((1-(4-(2,4-dioxotetrahydropyrimidin-1(2H)-yl)benzyl)piperidin-4-yl)methyl)amino)phenyl)cyclopropane-1-carbonitrile]
8 | 500 to 1000 | O=C1CCN(c2ccc(CN3CCC(n4cc(NC(=O)c5coc(-c6ccnc(NCC7CC7)c6)n5)c(C(F)F)n4)CC3)nc2)C(=O)N1 [GT-04958, 2-(2-((cyclopropylmethyl)amino)pyridin-4-yl)-N-(3-(difluoromethyl)-1-(1-((5-(2,4-dioxotetrahydropyrimidin-1(2H)-yl)pyridin-2-yl)methyl)piperidin-4-yl)-1H-pyrazol-4-yl)oxazole-4-carboxamide]
9 | 500 to 1000 | Nc1nnc(-c2ccccc2O)cc1N1CCN(Cc2ccc(N3CCC(=O)NC3=O)cc2)CC1 [GT-04961, 1-(4-((4-(3-amino-6-(2-hydroxyphenyl)pyridazin-4-yl)piperazin-1-yl)methyl)phenyl)dihydropyrimidine-2,4(1H,3H)-dione]
10 | 1000 to 1900 | Nc1nnc(-c2ccccc2O)cc1N1CCN(Cc2cccc(N3CCC(=O)NC3=O)c2)CC1 [GT-04962, 1-(3-((4-(3-amino-6-(2-hydroxyphenyl)pyridazin-4-yl)piperazin-1-yl)methyl)phenyl)dihydropyrimidine-2,4(1H,3H)-dione]
11 | 500 to 1000 | O=C1CCN(c2cccc(CN3CCC(n4cc(NC(=O)c5coc(-c6ccnc(NCC7CC7)c6)n5)c(C(F)F)n4)CC3)c2)C(=O)N1 [GT-04965, 2-(2-((cyclopropylmethyl)amino)pyridin-4-yl)-N-(3-(difluoromethyl)-1-(1-(3-(2,4-dioxotetrahydropyrimidin-1(2H)-yl)benzyl)piperidin-4-yl)-1H-pyrazol-4-yl)oxazole-4-carboxamide]
12 | 1000 to 1900 | Cc1ccc(-c2c(C)noc2C)cc1N(CC1CCN(Cc2ccc(N3CCC(=O)NC3=O)cc2F)CC1)c1ccc(C2(C#N)CC2)cc1 [GT-04973, 1-(4-((5-(3,5-dimethylisoxazol-4-yl)-2-methylphenyl)((1-(4-(2,4-dioxotetrahydropyrimidin-1(2H)-yl)-2-fluorobenzyl)piperidin-4-yl)methyl)amino)phenyl)cyclopropane-1-carbonitrile]
13 | 500 to 1000 | O=C1CCN(c2cccc(CN3CCN(Cc4ccc5c(c4)nc(NC(=O)c4cccc(C(F)(F)F)c4)n5[C@H]4CC[C@@H](CO)CC4)CC3)c2)C(=O)N1 [GT-04977, N-(5-((4-(3-(2,4-dioxotetrahydropyrimidin-1(2H)-yl)benzyl)piperazin-1-yl)methyl)-1-((1s,4s)-4-(hydroxymethyl)cyclohexyl)-1H-benzo[d]imidazol-2-yl)-3-(trifluoromethyl)benzamide]
14 | 1000 to 1900 | O=C1CCC(c2ccc(CN3CCN(Cc4ccc5c(c4)nc(NC(=O)c4cccc(C(F)(F)F)c4)n5[C@H]4CC[C@@H](CO)CC4)CC3)cc2)C(=O)N1 (stereo partly drawn) [GT-04978, N-(5-((4-(4-(2,6-dioxopiperidin-3-yl)benzyl)piperazin-1-yl)methyl)-1-((1s,4s)-4-(hydroxymethyl)cyclohexyl)-1H-benzo[d]imidazol-2-yl)-3-(trifluoromethyl)benzamide]
15 | 500 to 1000 | O=C1CCC(Nc2cccc(CN3CCN(c4ccc5c(c4)nc(NC(=O)c4cccc(C(F)(F)F)c4)n5[C@H]4CC[C@@H](CO)CC4)CC3)c2)C(=O)N1 (stereo partly drawn) [GT-04985, N-(5-(4-(3-((2,6-dioxopiperidin-3-yl)amino)benzyl)piperazin-1-yl)-1-((1s,4s)-4-(hydroxymethyl)cyclohexyl)-1H-benzo[d]imidazol-2-yl)-3-(trifluoromethyl)benzamide]
16 | < 500 | Nc1nnc(-c2ccccc2O)cc1N1CCN(Cc2ccc(C3CCC(=O)NC3=O)cc2)CC1 (stereo not drawn) [GT-05015, 3-(4-((4-(3-amino-6-(2-hydroxyphenyl)pyridazin-4-yl)piperazin-1-yl)methyl)phenyl)piperidine-2,6-dione]
17 | 500 to 1000 | Nc1nnc(-c2ccccc2O)cc1N1CCN(Cc2ccc(N3CCC(=O)NC3=O)cn2)CC1 [GT-05016, 1-(6-((4-(3-amino-6-(2-hydroxyphenyl)pyridazin-4-yl)piperazin-1-yl)methyl)pyridin-3-yl)dihydropyrimidine-2,4(1H,3H)-dione]
18 | 1000 to 1900 | O=C1CCC(c2ccc(CN3CCC(N4CCN(c5ccc6c(c5)nc(NC(=O)c5cccc(C(F)(F)F)c5)n6[C@H]5CC[C@@H](CO)CC5)CC4)CC3)cc2)C(=O)N1 (stereo partly drawn) [GT-05020, N-(5-(4-(1-(4-(2,6-dioxopiperidin-3-yl)benzyl)piperidin-4-yl)piperazin-1-yl)-1-((1s,4s)-4-(hydroxymethyl)cyclohexyl)-1H-benzo[d]imidazol-2-yl)-3-(trifluoromethyl)benzamide]
19 | 1000 to 1900 | O=C1CCN(c2ccc(CN3CCC(N4CCN(c5ccc6c(c5)nc(NC(=O)c5cccc(C(F)(F)F)c5)n6[C@H]5CC[C@@H](CO)CC5)CC4)CC3)cc2)C(=O)N1 [GT-05021, N-(5-(4-(1-(4-(2,4-dioxotetrahydropyrimidin-1(2H)-yl)benzyl)piperidin-4-yl)piperazin-1-yl)-1-((1s,4s)-4-(hydroxymethyl)cyclohexyl)-1H-benzo[d]imidazol-2-yl)-3-(trifluoromethyl)benzamide]
20 | 1000 to 1900 | O=C1CCN(c2cccc(CN3CCC(N4CCN(c5ccc6c(c5)nc(NC(=O)c5cccc(C(F)(F)F)c5)n6[C@H]5CC[C@@H](CO)CC5)CC4)CC3)c2)C(=O)N1 [GT-05022, N-(5-(4-(1-(3-(2,4-dioxotetrahydropyrimidin-1(2H)-yl)benzyl)piperidin-4-yl)piperazin-1-yl)-1-((1s,4s)-4-(hydroxymethyl)cyclohexyl)-1H-benzo[d]imidazol-2-yl)-3-(trifluoromethyl)benzamide]
21 | 1000 to 1900 | O=C1CCN(c2ccc(CN3CCC(N4CCN(c5ccc6c(c5)nc(NC(=O)c5cccc(C(F)(F)F)c5)n6[C@H]5CC[C@@H](CO)CC5)CC4)CC3)nc2)C(=O)N1 [GT-05024, N-(5-(4-(1-((5-(2,4-dioxotetrahydropyrimidin-1(2H)-yl)pyridin-2-yl)methyl)piperidin-4-yl)piperazin-1-yl)-1-((1s,4s)-4-(hydroxymethyl)cyclohexyl)-1H-benzo[d]imidazol-2-yl)-3-(trifluoromethyl)benzamide]
